Data reported in ChEMBL document CHEMBL1201862, “PubChem BioAssay data set” (2004).
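Assay format: 96-well plates, 48-hour exposure. GI50 is the concentration that inhibits growth by half.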 Activity calls are given as the source filed them. Rule as the data show it: active = GI50 up to about 1.1 µM and inactive = higher.

Assays:
Experiment in all cases: DTP human tumour cell line panel, 48 h
SR = tested on: SR
SNB-19 = tested on: SNB-19
A549 = tested on: A549
NCI-H23 = tested on: NCI-H23
COLO 205 = tested on: COLO 205
KM12 = tested on: KM12
UACC-62 = tested on: UACC-62
MDA-N = tested on: MDA-N
U-251 = tested on: U-251
SK-MEL-5 = tested on: SK-MEL-5
MCF7 = tested on: MCF7
786-0 = tested on: 786-0
MDA-MB-231 = tested on: MDA-MB-231
HOP-62 = tested on: HOP-62
SF-539 = tested on: SF-539
NCI-H522 = tested on: NCI-H522
SF-295 = tested on: SF-295
Hs-578T = tested on: Hs-578T
IGROV-1 = tested on: IGROV-1
SW-620 = tested on: SW-620
K562 = tested on: K562
UACC-257 = tested on: UACC-257
HCT-116 = tested on: HCT-116
M14 = tested on: M14
HCT-15 = tested on: HCT-15
LOX IMVI = tested on: LOX IMVI
OVCAR-5 = tested on: OVCAR-5
HL-60 = tested on: HL-60
SNB-75 = tested on: SNB-75
HOP-92 = tested on: HOP-92
CCRF-CEM = tested on: CCRF-CEM
DU-145 = tested on: DU-145
OVCAR-4 = tested on: OVCAR-4
TK-10 = tested on: TK-10
MDA-MB-435 = tested on: MDA-MB-435
PC-3 = tested on: PC-3
ACHN = tested on: ACHN
OVCAR-3 = tested on: OVCAR-3
BT-549 = tested on: BT-549
Malme-3M = tested on: Malme-3M
RPMI-8226 = tested on: RPMI-8226
SN12C = tested on: SN12C
SK-MEL-28 = tested on: SK-MEL-28
T47D = tested on: T47D
HCC 2998 = tested on: HCC 2998
CAKI-1 = tested on: CAKI-1
NCI/ADR-RES = tested on: NCI/ADR-RES
SF-268 = tested on: SF-268
SK-OV-3 = tested on: SK-OV-3
OVCAR-8 = tested on: OVCAR-8
HT-29 = tested on: HT-29
RXF 393 = tested on: RXF 393
NCI-H460 = tested on: NCI-H460
MOLT-4 = tested on: MOLT-4
NCI-H226 = tested on: NCI-H226
EKVX = tested on: EKVX
UO-31 = tested on: UO-31
SK-MEL-2 = tested on: SK-MEL-2
A498 = tested on: A498

CCCC(=O)Nc1cc2c3c(c1)CCCN3CCC2
GI50 (SR): > 10 µM (inactive)
GI50 (SNB-19): > 10 µM (inactive)
GI50 (A549): > 10 µM (inactive)
GI50 (NCI-H23): 3.77 µM (inactive)
GI50 (COLO 205): > 10 µM (inactive)
GI50 (KM12): > 10 µM (inactive)
GI50 (UACC-62): > 10 µM (inactive)
GI50 (MDA-N): > 10 µM (inactive)
GI50 (U-251): > 10 µM (inactive)
GI50 (SK-MEL-5): > 10 µM (inactive)
GI50 (MCF7): 6.08 µM (inactive)
GI50 (786-0): > 10 µM (inactive)
GI50 (MDA-MB-231): > 10 µM (inactive)
GI50 (HOP-62): > 10 µM (inactive)
GI50 (SF-539): > 10 µM (inactive)
GI50 (NCI-H522): > 10 µM (inactive)
GI50 (SF-295): > 10 µM (inactive)
GI50 (Hs-578T): > 10 µM (inactive)
GI50 (IGROV-1): > 10 µM (inactive)
GI50 (SW-620): > 10 µM (inactive)
GI50 (K562): > 10 µM (inactive)
GI50 (UACC-257): > 10 µM (inactive)
GI50 (HCT-116): > 10 µM (inactive)
GI50 (M14): > 10 µM (inactive)
GI50 (HCT-15): > 10 µM
GI50 (LOX IMVI): > 10 µM (inactive)
GI50 (OVCAR-5): > 10 µM (inactive)
GI50 (HL-60): > 10 µM (inactive)
GI50 (SNB-75): > 10 µM (inactive)
GI50 (HOP-92): > 10 µM (inactive)
GI50 (CCRF-CEM): > 10 µM (inactive)
GI50 (DU-145): > 10 µM (inactive)
GI50 (OVCAR-4): > 10 µM (inactive)
GI50 (TK-10): > 10 µM (inactive)
GI50 (MDA-MB-435): > 10 µM (inactive)
GI50 (PC-3): > 10 µM (inactive)
GI50 (ACHN): > 10 µM (inactive)
GI50 (OVCAR-3): > 10 µM (inactive)
GI50 (BT-549): > 10 µM (inactive)
GI50 (Malme-3M): > 10 µM (inactive)
GI50 (RPMI-8226): > 10 µM (inactive)
GI50 (SN12C): > 10 µM (inactive)
GI50 (SK-MEL-28): > 10 µM (inactive)
GI50 (T47D): 6.01 µM (inactive)
GI50 (HCC 2998): > 10 µM (inactive)
GI50 (CAKI-1): > 10 µM (inactive)
GI50 (NCI/ADR-RES): > 10 µM (inactive)
GI50 (SF-268): > 10 µM (inactive)
GI50 (SK-OV-3): 9.66 µM (inactive)
GI50 (OVCAR-8): > 10 µM (inactive)
GI50 (HT-29): > 10 µM (inactive)

CN1CCc2c([nH]c3ccccc23)C1
GI50 (SR): > 100 µM (inactive)
GI50 (SNB-19): > 100 µM (inactive)
GI50 (A549): > 100 µM (inactive)
GI50 (NCI-H23): > 100 µM (inactive)
GI50 (COLO 205): > 100 µM (inactive)
GI50 (KM12): > 100 µM (inactive)
GI50 (UACC-62): > 100 µM (inactive)
GI50 (MDA-N): > 100 µM (inactive)
GI50 (U-251): > 100 µM (inactive)
GI50 (SK-MEL-5): > 100 µM (inactive)
GI50 (MCF7): > 100 µM (inactive)
GI50 (786-0): > 100 µM (inactive)
GI50 (MDA-MB-231): > 100 µM (inactive)
GI50 (HOP-62): > 100 µM (inactive)
GI50 (RXF 393): > 100 µM (inactive)
GI50 (NCI-H460): > 100 µM (inactive)
GI50 (NCI-H522): > 100 µM (inactive)
GI50 (SF-295): > 100 µM (inactive)
GI50 (Hs-578T): > 100 µM (inactive)
GI50 (MOLT-4): > 100 µM (inactive)
GI50 (IGROV-1): > 100 µM (inactive)
GI50 (SW-620): > 100 µM (inactive)
GI50 (K562): > 100 µM (inactive)
GI50 (UACC-257): > 100 µM (inactive)
GI50 (HCT-116): > 100 µM (inactive)
GI50 (M14): > 100 µM (inactive)
GI50 (HCT-15): > 100 µM
GI50 (LOX IMVI): > 100 µM (inactive)
GI50 (OVCAR-5): > 100 µM (inactive)
GI50 (HL-60): > 100 µM (inactive)
GI50 (SNB-75): 19.7 µM (inactive)
GI50 (CCRF-CEM): > 100 µM (inactive)
GI50 (DU-145): > 100 µM (inactive)
GI50 (OVCAR-4): > 100 µM (inactive)
GI50 (NCI-H226): > 100 µM (inactive)
GI50 (TK-10): > 100 µM (inactive)
GI50 (MDA-MB-435): > 100 µM (inactive)
GI50 (PC-3): > 100 µM (inactive)
GI50 (ACHN): > 100 µM (inactive)
GI50 (OVCAR-3): > 100 µM (inactive)
GI50 (BT-549): > 100 µM (inactive)
GI50 (Malme-3M): 29.4 µM (inactive)
GI50 (RPMI-8226): > 100 µM (inactive)
GI50 (SN12C): > 100 µM (inactive)
GI50 (SK-MEL-28): > 100 µM (inactive)
GI50 (T47D): > 100 µM (inactive)
GI50 (HCC 2998): > 100 µM (inactive)
GI50 (CAKI-1): > 100 µM (inactive)
GI50 (EKVX): > 100 µM (inactive)
GI50 (UO-31): > 100 µM (inactive)
GI50 (NCI/ADR-RES): > 100 µM (inactive)
GI50 (SF-268): > 100 µM (inactive)
GI50 (SK-OV-3): > 100 µM (inactive)
GI50 (OVCAR-8): > 100 µM (inactive)
GI50 (HT-29): > 100 µM (inactive)
GI50 (SK-MEL-2): > 100 µM (inactive)

O=S(=O)(O)c1cc(O)c(/N=N\C2S(=O)(=O)OCCOS2(=O)=O)c2ccccc12
GI50 (SNB-19): 56.5 µM (inactive)
GI50 (A549): > 100 µM (inactive)
GI50 (NCI-H23): > 100 µM (inactive)
GI50 (COLO 205): > 100 µM (inactive)
GI50 (KM12): > 100 µM (inactive)
GI50 (UACC-62): 91 µM (inactive)
GI50 (MDA-N): > 100 µM (inactive)
GI50 (U-251): 71.8 µM (inactive)
GI50 (SK-MEL-5): > 100 µM (inactive)
GI50 (MCF7): > 100 µM (inactive)
GI50 (786-0): 61.9 µM (inactive)
GI50 (MDA-MB-231): > 100 µM (inactive)
GI50 (HOP-62): 43.6 µM (inactive)
GI50 (SF-539): 54.3 µM (inactive)
GI50 (RXF 393): > 100 µM (inactive)
GI50 (NCI-H460): 23.4 µM (inactive)
GI50 (NCI-H522): > 100 µM (inactive)
GI50 (A498): > 100 µM (inactive)
GI50 (SF-295): 51.4 µM (inactive)
GI50 (Hs-578T): > 100 µM (inactive)
GI50 (MOLT-4): 30.6 µM (inactive)
GI50 (IGROV-1): 37.9 µM (inactive)
GI50 (SW-620): > 100 µM (inactive)
GI50 (K562): > 100 µM (inactive)
GI50 (UACC-257): > 100 µM (inactive)
GI50 (HCT-116): > 100 µM (inactive)
GI50 (M14): > 100 µM (inactive)
GI50 (HCT-15): > 100 µM
GI50 (LOX IMVI): 61.9 µM (inactive)
GI50 (OVCAR-5): > 100 µM (inactive)
GI50 (HL-60): 22.2 µM (inactive)
GI50 (SNB-75): 25.6 µM (inactive)
GI50 (HOP-92): > 100 µM (inactive)
GI50 (CCRF-CEM): 28.8 µM (inactive)
GI50 (DU-145): > 100 µM (inactive)
GI50 (OVCAR-4): > 100 µM (inactive)
GI50 (NCI-H226): > 100 µM (inactive)
GI50 (TK-10): > 100 µM (inactive)
GI50 (MDA-MB-435): > 100 µM (inactive)
GI50 (PC-3): > 100 µM (inactive)
GI50 (ACHN): 46 µM (inactive)
GI50 (OVCAR-3): > 100 µM (inactive)
GI50 (BT-549): > 100 µM (inactive)
GI50 (Malme-3M): > 100 µM (inactive)
GI50 (RPMI-8226): > 100 µM (inactive)
GI50 (SN12C): > 100 µM (inactive)
GI50 (SK-MEL-28): > 100 µM (inactive)
GI50 (T47D): > 100 µM (inactive)
GI50 (HCC 2998): > 100 µM (inactive)
GI50 (CAKI-1): > 100 µM (inactive)
GI50 (EKVX): > 100 µM (inactive)
GI50 (UO-31): > 100 µM (inactive)
GI50 (NCI/ADR-RES): > 100 µM (inactive)
GI50 (SF-268): > 100 µM (inactive)
GI50 (SK-OV-3): > 100 µM (inactive)
GI50 (OVCAR-8): > 100 µM (inactive)
GI50 (HT-29): > 100 µM (inactive)
GI50 (SK-MEL-2): > 100 µM (inactive)
